Experimental data as given in patent US20250339400A1, “ARTESUNATE POWDERS, PHARMACEUTICAL COMPOSITIONS AND METHODS OF MANUFACTURE” (AMIVAS, INC., priority 2024, published 2025).

Experiments:
[1] = cited from earlier work
[2] = Tapped density, Caleva tapped density tester; type: physicochemical; settings: after tapping
Protocol: The artesunate powders were then passed through a No. 18, 1.00 mm sieve and then added to a 10 mL Cole Parmer graduated cylinder. The graduated cylinder containing the artesunate powders was placed on a Caleva tapped density tester. The samples in the graduated cylinder were then subjected to the following sequence: 10 taps, 500 additional taps, 1250 additional taps, and 1250 additional taps. A volume was taken at the end of each set of taps, and when the volume was consistent for two sets in a row, the measurement was terminated. This final volume was then used to calculate the tapped density. Two replicate measurements were taken, and an average value was calculated.

[3] = Tapped density, Caleva tapped density tester; type: physicochemical; settings: 35% RH exposure ~24 h; after tapping
[4] = Static charge, Newtry static meter; type: physicochemical
Protocol: Static charge measurements were performed using a Newtry static meter. The powders were accumulated onto a piece of weigh paper and the surface gently leveled. The static meter was held approximately 25 millimeters from the surface of the material to obtain a reading. Three replicate measurements were taken, and an average was calculated.

[5] = Dynamic Vapor Sorption (DVS) moisture absorbance; type: physicochemical; settings: 25 °C
Protocol: The instruments were calibrated with standard weights and a sodium bromide standard for humidity. One sample was equilibrated 50% RH for at least 5 days prior to analysis, while the other sample was equilibrated to 20% RH for at least 5 days prior to analysis. Approximately 10 to 20 mg of the powder samples were loaded into metal-coated quartz pans for analysis. The samples were analyzed at 25° C. in 10% RH steps from 5 to 95% RH (adsorption cycle) and from 95 to 5% RH (desorption cycle). The movement from one step to the next occurred either after satisfying the equilibrium criterion of 0.01% weight change in 30 minutes or, if the equilibrium criterion was not met, after 90 minutes. The percent weight change values were calculated using Microsoft Excel®2016. The results of this example are provided in Tables 6 and 7 and depicted in FIG. 1 (Sample Equilibrated to 20% RH) and FIG. 2 (Sample Equilibrated to 50% RH).

[6] = Bulk density, graduated cylinder; type: physicochemical
[7] = SEM images of caking / agglomeration; type: physicochemical
Protocol: SEM images were collected using a Phenom XL Desktop SEM equipped with a CeB6 electron source (see FIG. 6). Phenom User Interface version 1.4 was used to acquire and save the images. Detailed image parameters are recorded in the footer of each image. Powder sample preparation for proper SEM results is known to those skilled in the art, and mainly relies on a proper monolayer of particles. These can be prepared with: the flick method, wherein a cotton swab is used to disperse particles onto a sample support by the “flick of a finger”; drop casting, where liquid solvents transfer particles onto a sample stub; or the dish method, where particles are spread over the area of a petri dish or similar flat surface using a spatula. A Nebula Particle Dispenser may also be used to prepare a uniform layer of powder. Although it is desirable to avoid agglomeration, the example as described herein sought to determine when agglomeration occurs at particular humidity levels. The samples tested herein were prepared with the flick method.

[8] = cited from earlier work; remark: listed apart in the source
[9] = Angle of repose, USP <1174>; type: physicochemical
Protocol: Angle of repose analyses were performed on artesunate powders based upon USP <1174> and under controlled relative humidity conditions. Polytetrafluoroethylene (PTFE) funnels with 8, 10 and 12 mm openings (i.e., Funnel 1, Funnel 2 and Funnel 3, respectively) were used in conjunction with a stainless steel receiving cylinder (Ø=30 mm). Powder samples were placed in the funnel while the funnel opening was closed with a glass slide. Once all the sample powder was loaded in the funnel, the glass slide was removed to allow powder to land on the cylinder below. The top and side of the funnel were tapped to enable the sample powder to drop down. The funnel height was maintained approximately 2-4 cm from the top of the powder pile to minimize the impact of falling powder on the tip of the cone. After the powder cone was built, height of the material forming the cone (h) and the radius (r) of the base were measured by a metal ruler. The angle of repose (θ) was calculated as follows: tan (θ)=h/r. Results were only considered valid when a symmetrical cone of powder was formed. Triplicate tests were attempted for each size of the funnels with the same amount of material being used.

[10] = 10% RH exposure, at least five days
[11] = 20% RH exposure, at least five days
[12] = 30% RH exposure, at least five days
[13] = 40% RH exposure, at least five days
[14] = 50% RH exposure, at least five days

Average Bulk Density (Tapped Densities of Powder Samples) ([2]; 20% RH exposure ~24 h): 0.303 g/mL
Bulk Density 1 (Tapped Densities of Powder Samples) ([2]; 20% RH exposure ~24 h): 0.307 g/mL
Bulk Density 2 (Tapped Densities of Powder Samples) ([2]; 20% RH exposure ~24 h): 0.318 g/mL
Bulk Density 3 (Tapped Densities of Powder Samples) ([2]; 20% RH exposure ~24 h): 0.283 g/mL
Average Bulk Density (Tapped Densities of Powder Samples) ([2]; 35% RH exposure ~24 h): 0.318 g/mL
Bulk Density 1 (Tapped Densities of Powder Samples) ([2]; 35% RH exposure ~24 h): 0.317 g/mL
Bulk Density 2 (Tapped Densities of Powder Samples) ([2]; 35% RH exposure ~24 h): 0.300 g/mL
Average Bulk Density (Tapped Densities of Powder Samples) ([2]; 50% RH exposure ~24 h): 0.317 g/mL
Bulk Density 1 (Tapped Densities of Powder Samples) ([2]; 50% RH exposure ~24 h): 0.320 g/mL
Bulk Density 2 (Tapped Densities of Powder Samples) ([2]; 50% RH exposure ~24 h): 0.312 g/mL
Bulk Density 3 (Tapped Densities of Powder Samples) ([2]; 50% RH exposure ~24 h): 0.319 g/mL
Bulk Density 3 (Tapped Densities of Powder Samples) [3]: 0.337 g/mL
Average Static Reading [4, 10]: 0.36 kV
Static Reading 1 [4, 10]: 0.40 kV
Static Reading 2 [4, 10]: 0.38 kV
Static Reading 3 [4, 10]: 0.30 kV
Average Static Reading ([4]; 11% RH): 0.36 kV
Average Static Reading [4, 11]: 0.13 kV
Static Reading 1 [4, 11]: 0.12 kV
Static Reading 2 [4, 11]: 0.13 kV
Static Reading 3 [4, 11]: 0.13 kV
Average Static Reading ([4]; 22% RH): 0.13 kV
Average Static Reading [4, 12]: −0.04 kV
Static Reading 1 [4, 12]: −0.04 kV
Static Reading 2 [4, 12]: −0.04 kV
Static Reading 3 [4, 12]: −0.04 kV
Average Static Reading [4, 13]: 0.01 kV
Static Reading 1 [4, 13]: 0.02 kV
Static Reading 2 [4, 13]: 0.01 kV
Static Reading 3 [4, 13]: 0.00 kV
Average Static Reading [4, 14]: −0.05 kV
Static Reading 1 [4, 14]: −0.05 kV
Static Reading 2 [4, 14]: −0.05 kV
Static Reading 3 [4, 14]: −0.05 kV
% change (DVS) ([5]; sample equilibrated to 20% RH, RH step 95, total 360 min): 100.08%
% change (DVS) ([5]; sample equilibrated to 20% RH, adsorption, RH step 5, total 0 min): 100.00%
% change (DVS) ([5]; sample equilibrated to 20% RH, adsorption, RH step 5, total 60 min): 100.00%
% change (DVS) ([5]; sample equilibrated to 20% RH, adsorption, RH step 15, total 90 min): 100.02%
% change (DVS) ([5]; sample equilibrated to 20% RH, adsorption, RH step 25, total 120 min): 100.02%
% change (DVS) ([5]; sample equilibrated to 20% RH, adsorption, RH step 35, total 150 min): 100.03%
% change (DVS) ([5]; sample equilibrated to 20% RH, adsorption, RH step 45, total 180 min): 100.03%
% change (DVS) ([5]; sample equilibrated to 20% RH, adsorption, RH step 55, total 210 min): 100.03%
% change (DVS) ([5]; sample equilibrated to 20% RH, adsorption, RH step 65, total 240 min): 100.04%
% change (DVS) ([5]; sample equilibrated to 20% RH, adsorption, RH step 75, total 270 min): 100.05%
% change (DVS) ([5]; sample equilibrated to 20% RH, adsorption, RH step 85, total 300 min): 100.06%
% change (DVS) ([5]; sample equilibrated to 20% RH, desorption, RH step 5, total 630 min): 100.04%
% change (DVS) ([5]; sample equilibrated to 20% RH, desorption, RH step 15, total 600 min): 100.04%
% change (DVS) ([5]; sample equilibrated to 20% RH, desorption, RH step 25, total 570 min): 100.04%
% change (DVS) ([5]; sample equilibrated to 20% RH, desorption, RH step 35, total 540 min): 100.04%
% change (DVS) ([5]; sample equilibrated to 20% RH, desorption, RH step 45, total 510 min): 100.05%
% change (DVS) ([5]; sample equilibrated to 20% RH, desorption, RH step 55, total 480 min): 100.06%
% change (DVS) ([5]; sample equilibrated to 20% RH, desorption, RH step 65, total 450 min): 100.06%
% change (DVS) ([5]; sample equilibrated to 20% RH, desorption, RH step 75, total 420 min): 100.06%
% change (DVS) ([5]; sample equilibrated to 20% RH, desorption, RH step 85, total 390 min): 100.07%
% change (DVS) ([5]; sample equilibrated to 50% RH, RH step 95, total 360 min): 100.08%
% change (DVS) ([5]; sample equilibrated to 50% RH, adsorption, RH step 5, total 0 min): 100.00%
% change (DVS) ([5]; sample equilibrated to 50% RH, adsorption, RH step 5, total 30 min): 100.01%
% change (DVS) ([5]; sample equilibrated to 50% RH, adsorption, RH step 15, total 60 min): 100.01%
% change (DVS) ([5]; sample equilibrated to 50% RH, adsorption, RH step 25, total 90 min): 100.01%
% change (DVS) ([5]; sample equilibrated to 50% RH, adsorption, RH step 35, total 120 min): 100.01%
% change (DVS) ([5]; sample equilibrated to 50% RH, adsorption, RH step 45, total 150 min): 100.02%
% change (DVS) ([5]; sample equilibrated to 50% RH, adsorption, RH step 55, total 180 min): 100.02%
% change (DVS) ([5]; sample equilibrated to 50% RH, adsorption, RH step 65, total 240 min): 100.03%
% change (DVS) ([5]; sample equilibrated to 50% RH, adsorption, RH step 75, total 270 min): 100.04%
% change (DVS) ([5]; sample equilibrated to 50% RH, adsorption, RH step 85, total 300 min): 100.05%
% change (DVS) ([5]; sample equilibrated to 50% RH, desorption, RH step 5, total 660 min): 100.02%
% change (DVS) ([5]; sample equilibrated to 50% RH, desorption, RH step 15, total 630 min): 100.02%
% change (DVS) ([5]; sample equilibrated to 50% RH, desorption, RH step 25, total 600 min): 100.02%
% change (DVS) ([5]; sample equilibrated to 50% RH, desorption, RH step 35, total 570 min): 100.02%
% change (DVS) ([5]; sample equilibrated to 50% RH, desorption, RH step 45, total 540 min): 100.03%
% change (DVS) ([5]; sample equilibrated to 50% RH, desorption, RH step 55, total 510 min): 100.04%
% change (DVS) ([5]; sample equilibrated to 50% RH, desorption, RH step 65, total 480 min): 100.05%
% change (DVS) ([5]; sample equilibrated to 50% RH, desorption, RH step 75, total 450 min): 100.05%
% change (DVS) ([5]; sample equilibrated to 50% RH, desorption, RH step 85, total 420 min): 100.06%
Average Bulk Density ([6]; 20% RH exposure ~24 h): 0.203 g/mL
Bulk Density 1 ([6]; 20% RH exposure ~24 h): 0.193 g/mL
Bulk Density 2 ([6]; 20% RH exposure ~24 h): 0.231 g/mL
Average Bulk Density ([6]; 50% RH exposure ~24 h): 0.203 g/mL
Bulk Density 1 ([6]; 50% RH exposure ~24 h): 0.200 g/mL
Bulk Density 2 ([6]; 50% RH exposure ~24 h): 0.208 g/mL
caking / agglomeration in SEM images ([7]; 20% RH (FIG. 6)): strong caking, or agglomeration
caking in SEM images ([7]; 35% RH (FIG. 7)): less caking
agglomeration / caking in SEM images ([7]; 50% RH (FIG. 8)): significant agglomeration, or caking
angle of repose ([9]; 35% RH, Average of Funnels 1-3): 39 degrees
angle of repose ([9]; 35% RH, Funnel 1 (8 mm opening)): 35 degrees
angle of repose ([9]; 35% RH, Funnel 2 (10 mm opening)): 38 degrees
angle of repose ([9]; 35% RH, Funnel 3 (12 mm opening)): 45 degrees
flow properties based on USP 1174 ([9]; 35% relative humidity): acceptable
angle of repose ([9]; 50% RH, Average of Funnels 1-3): 43 degrees
angle of repose ([9]; 50% RH, Funnel 1 (8 mm opening)): 42 degrees
angle of repose ([9]; 50% RH, Funnel 2 (10 mm opening)): 45 degrees
angle of repose ([9]; 50% RH, Funnel 3 (12 mm opening)): 42 degrees
flow property based on USP 1174 ([9]; 50% relative humidity): passable but may hang up
SMILES: C[C@H]1[C@H](OC(=O)CCC(=O)O)O[C@@H]2O[C@@]3(C)CC[C@H]4[C@H](C)CC[C@@H]1[C@@]24OO3 [artesunate powder, 4-oxo-4-[[(1R,4S,5R,8S,9R,10S,12R,13R)-1,5,9-trimethyl-11,14,15,16-tetraoxatetracyclo[10.3.1.0^4,13.0^8,13]hexadecan-10-yl]oxy]butanoic acid]
solubility in organic solvents ([1]; organic solvents, such as acetone and methanol): soluble
solubility in water ([1]; water): slightly soluble
stability under basic and acidic conditions ([8]; basic and acidic conditions): unstable
degradation by moisture and heat ([8]; moisture and heat (Agnihotri J. et al, 2013)): susceptible to degradation
